Like-named read-outs stand apart in the source and are kept apart here.

The values below come from publication PMC6268933 (Molecules, 2012).

Data set [1] in a line: DPPH radical scavenging activity (RSA) assay. The format is biochemical. The note with it: for IC50: 15 min in the dark at room temperature, 515 nm, mean ± SD (n = 3), read-out: DPPH radical scavenging activities (IC50); for average fold higher DPPH scavenging activity compared to compounds 1 to 6: positive controls vs compounds 1 to 6. The protocol:
The antioxidant activity of all six compounds was determined by the DPPH radical scavenging method according to the previous procedure with modification. Each compound was diluted two-fold in a series of five starting from 5.00 mg/mL. The solution of DPPH in methanol (6 × 10^−5 M) was prepared daily before UV measurements. A 3 mL aliquot of this solution was mixed with 77 μL of the compound solution in a 1-cm path length microcuvette. The mixture was shaken vigorously. The mixtures were then kept in the dark for 15 min at room temperature and the decrease in absorption was measured immediately in a UV-Vis spectrophotometer at 515 nm. The blank solution containing the same amount of methanol and DPPH solution was prepared and its absorption was measured daily. The experiment was carried out in triplicate. AscA and BHT were used as positive controls. The RSA of samples, expressed as percentage inhibition of DPPH, was calculated according to the formula: Inhibition percentage (Ip) = [(AB − AA)/AB] × 100, where AB and AA are the absorbance values—checked after 15 min—of the blank sample and of the tested sample solutions, respectively.
(In general: DPPH is a stable violet radical that fades when it is reduced.)

The nature of data set [2]: β-carotene-linoleic acid (BCLA) assay. The note with it: bleaching of β-carotene, 450 nm, up to 120 min; mean ± SD (n = 3); read-out: BCLA method (IC50). It counts as biochemical. The protocol: This test was carried out according to the reported method of literature with modification. Approximately 4 mL of a solution of β-carotene in chloroform (1 mg/mL) were pipetted into a flask containing 40 mg of linoleic acid and 400 mg of Tween-40. The chloroform was removed using a rotary evaporator at 40 °C for 5 min, and to the residue, 100 mL of distilled water were added, slowly with vigorous agitation, to form an emulsion. A 96-well micro-titer plate was added with 50 μL of the Part 2.4.1 solution of the test compound and 200 μL of the emulsion, and the absorbance was measured at 450 nm, immediately, against a blank consisting of the emulsion without β-carotene. The plate was allowed to stand at room temperature (20–23 °C), and the absorbance measurements were conducted again at 30 min intervals up to 120 min. All tests were carried out in triplicate. Stable antioxidants of AscA and BHT were used as positive controls. The antioxidant activity (AA) of the test samples was evaluated in terms of bleaching of β-carotene using the formula; AA = [1 − (A0 − At)/(A0' − At')] × 100, where A0 and A0' are the absorbance values measured at zero time of the sample and the blank, respectively, and At and At' are the absorbance measured in the test sample and the blank, respectively, at times up to 120 min.

Data set [3] can be described thus: Cytotoxicity on Vero cells by MTT assay. The format is cell-based. As to conditions: African green monkey (Cercopitheus aethiops). The protocol: The isolated compounds were tested for in-vitro cytotoxicity using Vero cells by 3-(4,5-dimethylthiazol-2-yl)-2,5-diphenyltetrazolium bromide (MTT) assay. The Vero cell line was initiated from kidney of a normal adult African green monkey, Cercopitheus aethiops, obtained from Virology Laboratory, School of Biosciences and Biotechnology, Faculty of Science and Technology, UKM. Vero cells were maintained in DMEM, supplemented with 10% FBS and cultured at 37 °C in a humidified 5% CO2 incubator. The concentration of stock compound solution was 1.0 mg/mL prepared by dissolving 1 mg compound in 50 μL methanol and 950 μL 5% FBS-DMEM. Sonicator was used to emulsify the compounds for 40 min before the two-fold dilutions made in 5% FBS-DMEM to produce a compound solution at concentrations of 0.5, 0.25, 0125 and 0.0625 mg/mL. Briefly, a total of […] of cell suspension with different concentrations were added to each well in the 96-well micro-titer plates. As a positive control, each well from first to third wells was added with cells of 2.5 × 10^5, 1.25 × 10^5 and 0.625 × 10^5 cells/mL. For the negative control (100% cell death, LC100), […] of DMEM without cells were added to the twelfth well. Cells of 2.5 × 10^5 cells/mL were added into the fourth to eleventh wells. The plates were incubated for 48 h at 37 °C with 5% CO2 until a monolayer is formed. […] After the incubation period, MTT (20 μL, 5 mg/mL) was added into each well and the cells incubated for 2 to 4 h, until a purple precipitate was clearly visible under a microscope, the medium together with MTT (190 μL) was aspirated off from the wells, DMSO (100 μL) was added and the plate shaken for 5 min. The absorbance for each well was measured at 540 nm in a micro-titer plate reader and percentage of cell viability (CV) was calculated manually using the formula: CV = [(Abssample − Absnegative control)/(Abscell − Absnegative control)] × 100.
For orientation: Tetrazolium assays rely on reduction of a dye to a coloured formazan, in cell work by metabolically active cells.

The conditions of data set [4]: cited from earlier work.
The mark [5] stands for this setting: Vero cells, MTT, 24 h incubation, read-out: Cytotoxic activities on Vero cell lines (LC50).
The mark [6] stands for this setting: from V. chunganensis, read-out: DPPH RSA.
[7] abbreviates: from Parthenocissus laetevirens, read-out: DPPH RSA antioxidant activities.
[8] abbreviates: from V. wilsonae, read-out: antioxidant activities towards DPPH, IC50.

Consider `Oc1ccc([C@@H]2c3c(O)cc(O)cc3[C@@H]3c4c(cc(O)cc4[C@@H]2O)O[C@H]3c2ccc(O)cc2)cc1` (relative stereo) [Compound 1, acuminatol], for which the IC50 in data set [1] is 10060 ± 50 µM; in data set [2], 180 ± 10 µM. In addition, the CC50 at 24 h in data set [3] (setting [5]) is 400 µM.

In the case of `O=C1O[C@H]([C@@H](O)CO)C(O)=C1O` [AscA, ascorbic acid, reference compound], the IC50 in data set [1] is 680 µM; in data set [2] it was 25200 ± 1740 µM. Also, the “average fold higher DPPH scavenging activity compared to compounds 1 to 6” value in data set [1] came out at 6 fold.

Consider `Cc1cc(C(C)(C)C)c(O)c(C(C)(C)C)c1` [BHT, butylated hydroxytoluene, reference compound], for which, in data set [1], the IC50 turned out to be 950 ± 50 µM and the “average fold higher DPPH scavenging activity compared to compounds 1 to 6” value is 4 fold. For the same compound, the IC50 in data set [2] stood at 90 µM.

With `O=C1O[C@@H]2[C@H](O)COC23O[C@@H](c2ccc(O)cc2)[C@H](c2cc(O)cc4c2[C@@H](c2cc(O)cc(O)c2)[C@H](c2ccc(O)cc2)O4)[C@@]13O` (stereo partly shown) [Compound 2, laevifonol], the IC50 stood at 4210 ± 230 µM in data set [1] and 220 ± 20 µM in data set [2]. In addition, in data set [3] (setting [5]), the CC50 at 24 h came out at 597 µM.

Turning to `Oc1ccc([C@H]2Oc3cc(O)cc4c3[C@@H]2c2cc(O)cc3c2[C@@H](c2cc(O)cc5c2[C@@H]4[C@H](c2ccc(O)cc2)O5)[C@H](c2ccc(O)cc2)O3)cc1` [Compound 3, (+)-α-viniferin], the IC50 in data set [1] was determined as 6290 ± 50 µM; in data set [2], 180 µM. In addition, the CC50 at 24 h in data set [3] (setting [5]) is 208 µM.

For `O=C1C=CC23C(C1)Oc1cc(O)cc4c1C2C(c1cc(O)cc2c1C4C(c1ccc(O)cc1)O2)C(c1cc(O)cc2c1C(c1cc(O)cc(O)c1)C(c1ccc(O)cc1)O2)C3c1ccc(O)cc1` (stereo not shown) [Compound 4, shoreaketone], the IC50 was 1540 ± 100 µM in data set [1] and 110 µM in data set [2]. Moreover, the CC50 at 24 h in data set [3] (setting [5]) came out at 830 µM.

As for `Oc1ccc([C@@H]2c3c(O)cc(O)cc3[C@@H]3c4c(cc(O)c5c4[C@@H]2[C@H](c2ccc(O)cc2)[C@H]5c2cc(O)cc4c2[C@@H](c2cc(O)cc(O)c2)[C@H](c2ccc(O)cc2)O4)O[C@H]3c2ccc(O)cc2)cc1` [Compound 5, vaticanol B], the IC50 is 840 ± 20 µM in data set [1] and 100 ± 10 µM in data set [2]. In addition, the CC50 at 24 h in data set [3] (setting [5]) is 759 µM.

For the compound `Oc1ccc([C@H]2c3c(O)cc(O)cc3[C@H]3c4c(cc(O)cc4[C@@H]2[C@H]2c4cc(O)cc5c4[C@H](c4cc(O)cc(O)c4[C@@H]2c2ccc(O)cc2)[C@@H](c2ccc(O)cc2)O5)O[C@@H]3c2ccc(O)cc2)cc1` [Compound 6, (−)-hopeaphenol], the results for the IC50 in data set [1] and in data set [2] were 2780 ± 160 µM and 100 ± 10 µM, respectively. In data set [3], this compound had a CC50 at 24 h of 161 µM.

As for `Oc1ccc(/C=C/c2c3c(cc4c2[C@H](c2cc(O)c(Cc5c(O)cc(O)cc5[C@@H]5c6c(O)cc7c8c6[C@H]([C@@H](c6ccc(O)cc6)c6c(O)cc(O)cc6[C@@H]8[C@@H](c6ccc(O)cc6)O7)[C@H]5c5ccc(O)cc5)c(O)c2)[C@@H](c2ccc(O)cc2)O4)O[C@H](c2ccc(O)cc2)[C@H]3c2cc(O)cc(O)c2)cc1` [chunganenol], in data set [4] (setting [6]), the IC50 was 37.3 µM.

For `Oc1ccc([C@H]2c3c(O)cc(O)c4c3c(cc3ccc(O)cc34)[C@@H]2c2cc(O)cc(O)c2)cc1` [laetevirenol A], the IC50 in data set [4] (setting [7]) was 38.4 µM.

As to `Oc1cc(O)cc(/C=C/c2ccc(O)c(O)c2)c1` [piceatanol], the IC50 in data set [4] (from Cyperus longus, read-out: DPPH RSA IC50) was 11 µM.

For the compound `C[C@H](O)/C=C/[C@@]1(O)[C@H](C)[C@H](O)[C@@H](O)CC1(C)C` [wilsonol A], the IC50 in data set [4] (setting [8]) was 104 µM.

On to `C[C@@H]1[C@H](O)[C@@H](O)CC(C)(C)[C@@]1(O)/C=C/[C@@H](C)O` [wilsonol B], for which the IC50 in data set [4] (setting [8]) was 195 µM.

As for `CC(=O)/C=C/[C@@]1(O)[C@H](C)[C@H](O)[C@@H](O)CC1(C)C` [wilsonol C], the IC50 in data set [4] (setting [8]) was 182 µM.

Consider (+)-amurensin G, for which the IC50 in data set [4] (setting [6]) is 138 µM.

As to (+)-gnetin H, the IC50 in data set [4] (setting [6]) is 251 µM.

diviniferin B: the IC50 in data set [4] (setting [8]) is 175 µM.

As for laetevirenol B, in data set [4] (setting [7]), the IC50 was 37.3 µM.

In the case of laetevirenol C, in data set [4] (setting [7]), the IC50 is 111 µM.

laetevirenol D: the IC50 in data set [4] (setting [7]) was 128 µM.

In the case of laetevirenol E, the IC50 in data set [4] (setting [7]) was 158 µM.
